Structures can show the parent of a compound that is named as a salt.
Columns and labels:
[1] = Pharmacokinetic parameters in rats after oral administration of the succinate prodrug (Example 7); assay type: in vivo; conditions: male, Crl:WI(GLx/BRL/Han)IGS BR (Hanover-Wistar), rat plasma; for Cmax: succinate prodrug given orally (gavage, aqueous suspension); for AUC: succinate prodrug given orally
Description: Male Crl:WI(GLx/BRL/Han)IGS BR (Hanover-Wistar) rats weighing 240-260 g were cannulated. Groups of three rats were used for each dose level of an experimental compound. The test substance succinic acid mono-[3-(2-chloro-phenyl)-6-(2,4-difluoro-phenoxy)-4-(2-hydroxy-2-methyl-propylamino)-pyrazolo[3,4-d]pyrimidin-1-ylmethyl]ester was formulated as an aqueous suspension, and a dose of 3 or 10 mg/kg (in 1-[3-(2-Chloro-phenyl)-6-(2,4-difluoro-phenoxy)-1H-pyrazolo[3,4-d]pyrimidin-4-ylamino]-2-methyl-propan-2-ol equivalent) was administered orally through gavage. A blood sample (0.3 mL) was collected from the each treated rat at 0 (predose), 0.083, 0.25, 1, 2, 4, 6, and 8 h after dose via the jugular cannula. At 24 h after dosing, blood was collected from each treated rat via cardiac puncture. Lithium heparin was added to the samples which were stored on ice during sampling procedure. The samples were spun in a refrigerated centrifuge at 4° C. as soon as possible and the plasma samples were stored −20° C. immediately after centrifugation and until analysis. The concentration of test compound was determined by HPLC-MS/MS.

[2] = Pharmacokinetic parameters in rats after oral administration of the phosphate prodrug (Example 6); assay type: in vivo; conditions: for Cmax / AUC: male, Crl:WI(GLx/BRL/Han)IGS BR (Hanover-Wistar), po, rat plasma; for Cmax: phosphate prodrug given orally (gavage, aqueous suspension)
Text: Male Crl:WI(GLx/BRL/Han)IGS BR (Hanover-Wistar) rats weighing 240-260 g were cannulated. Groups of three rats were used for each dose level of an experimental compound. One additional non-cannulated animal was included as vehicle control. Animals were allowed normal access to food and water throughout the experiment. The test substance phosphoric acid mono-{2-[3-(2-chloro-phenyl)-6-(2,4-difluoro-phenoxy)-1H-pyrazolo[3,4-d]pyrimidin-4-ylamino]-1-methyl-ethyl}ester was formulated as an aqueous suspension and a dose of 3 or 30 mg/kg (in 1-[3-(2-chloro-phenyl)-6-(2,4-difluoro-phenoxy)-1H-pyrazolo[3,4-d]pyrimidin-4-ylamino]-propan-2-ol equivalent) was administered orally through gavage. A blood sample (0.3 mL) was collected from the each treated rat at 0 (predose), 0.083, 0.25, 1, 2, 4, 6, and 8 hr after dose via the jugular cannula. At 24 hr after dosing, blood was collected from each treated rat via cardiac puncture. Blood was also collected from the untreated animal at 24 hr via cardiac puncture. Lithium heparin was added to the samples which were stored on ice during sampling procedure. The samples were spun in a refrigerated centrifuge at 4° C. as soon as possible and the plasma samples were stored −20° C. immediately after centrifugation and until analysis. The concentration of test compound was determined by HPLC-MS/MS. […] The prodrug phosphoric acid mono-{2-[3-(2-chloro-phenyl)-6-(2,4-difluoro-phenoxy)-1H-pyrazolo[3,4-d]pyrimidin-4-ylamino]-1-methyl-ethyl}ester was not detected in the rat plasma (at quantification limit of 0.0005 μg/mL) with the 3-mg/kg dose.

p38 MAP kinase = molecular target: T1, p38 MAP kinase (Homo sapiens, UniProt Q16539); experiment: p38 (MAP) kinase in vitro assay, transfer of γ-33P from ATP to Myelin Basic Protein; assay type: biochemical; conditions: phosphorylated recombinant p38 MAP kinase, MBP substrate
T1 construct: made in house; host or cells: E. coli (co-expressed with SEK-1 and MEKK)
T1 sequence (Q16539 whole entry): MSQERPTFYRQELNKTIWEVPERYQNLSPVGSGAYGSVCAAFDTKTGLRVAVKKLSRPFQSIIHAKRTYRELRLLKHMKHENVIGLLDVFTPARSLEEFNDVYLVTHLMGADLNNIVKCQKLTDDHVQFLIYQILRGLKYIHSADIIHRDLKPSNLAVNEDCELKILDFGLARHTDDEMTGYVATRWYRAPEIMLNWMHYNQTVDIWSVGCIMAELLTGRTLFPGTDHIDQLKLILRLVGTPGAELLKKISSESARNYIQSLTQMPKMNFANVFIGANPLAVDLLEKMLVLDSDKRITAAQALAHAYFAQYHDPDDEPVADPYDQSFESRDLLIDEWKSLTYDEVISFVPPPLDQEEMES
Description: The p38 MAP kinase inhibitory activity of compounds of this invention in vitro was determined by measuring the transfer of the γ-phosphate from γ-^33P-ATP by p-38 kinase to Myelin Basic Protein (MBP), using a minor modification of the method described in Ahn, et al., J. Biol. Chem. 266:4220-4227 (1991).
The phosphorylated form of the recombinant p38 MAP kinase was co-expressed with SEK-1 and MEKK in E. Coli (see, Khokhlatchev, et al., J. Biol. Chem. 272:11057-11062 (1997)) and then purified by affinity chromatography using a Nickel column.
The phosphorylated p38 MAP kinase was diluted in kinase buffer (20 mM 3-(N-morpholino)propanesulfonic acid, pH 7.2, 25 mM β-glycerol phosphate, 5 mM ethylene glycol-bis(beta-aminoethyl ether)-N,N,N′,N′-tetraacetic acid, 1 mM sodium ortho-vanadate, 1 mM dithiothreitol, 40 mM magnesium chloride). Test compound dissolved in DMSO or only DMSO (control) was added and the samples were incubated for 10 min at 30° C. The kinase reaction was initiated by the addition of a substrate cocktail containing MBP and γ-^33P-ATP. After incubating for an additional 20 min at 30° C., the reaction was terminated by adding 0.75% phosphoric acid. The phosphorylated MBP was then separated from the residual γ-^33P-ATP using a phosphocellulose membrane (Millipore, Bedfrod, Mass.) and quantitated using a scintillation counter (Packard, Meriden, Conn.).

[3] = phosphate prodrug given orally, 30 mg/kg in parent equivalent

Row | SMILES | Cmax ([1]; 3 mg/kg in parent equivalent) | Cmax ([1]; 10 mg/kg in parent equivalent) | AUC ([1]; 3 mg/kg in parent equivalent) | AUC ([1]; 10 mg/kg in parent equivalent) | Cmax ([2]; 30 mg/kg in parent equivalent) | AUC [2, 3] | other results
1 | CC(C)(O)CNc1nc(Oc2ccc(F)cc2F)nc2c1c(-c1ccccc1Cl)nn2COC(=O)CCC(=O)O [Succinic acid mono-[3-(2-chloro-phenyl)-6-(2,4-difluoro-phenoxy)-4-(2-hydroxy-2-methyl-propylamino)-pyrazolo[3,4-d]pyrimidin-1-ylmethyl]ester] | 1830 ng/mL | 9250 ng/mL | 6110 ng·h/mL | 20900 ng·h/mL |  |  | 
2 | CC(C)(O)CNc1nc(Oc2ccc(F)cc2F)nc2[nH]nc(-c3ccccc3Cl)c12 [1-[3-(2-Chloro-phenyl)-6-(2,4-difluoro-phenoxy)-1H-pyrazolo[3,4-d]pyrimidin-4-ylamino]-2-methyl-propan-2-ol] | 1340 ng/mL | 7050 ng/mL | 9270 ng·h/mL | 47400 ng·h/mL |  |  | 
3 | C[C@H](O)CNc1nc(Oc2ccc(F)cc2F)nc2[nH]nc(-c3ccccc3Cl)c12 [1-[3-(2-chloro-phenyl)-6-(2,4-difluoro-phenoxy)-1H-pyrazolo[3,4-d]pyrimidin-4-ylamino]-propan-2-ol] |  |  |  |  | 9800 ng/mL | 124000 ng·h/mL | Cmax ([2]; 3 mg/kg in parent equivalent): 1330 ng/mL; AUC ([2]; phosphate prodrug given orally, 3 mg/kg in parent equivalent): 12600 ng·h/mL
4 | C[C@@H](CNc1nc(Oc2ccc(F)cc2F)nc2[nH]nc(-c3ccccc3Cl)c12)OP(=O)(O)O (as salt: sodium) [phosphoric acid mono-{2-[3-(2-chloro-phenyl)-6-(2,4-difluoro-phenoxy)-1H-pyrazolo[3,4-d]pyrimidin-4-ylamino]-1-methyl-ethyl}ester] |  |  |  |  |  |  | melting point: > 300 °C
5 | C[C@@H](CNc1nc(Oc2ccc(F)cc2F)nc2[nH]nc(-c3ccccc3Cl)c12)OP(=O)(O)O [phosphoric acid mono-{2-[3-(2-chloro-phenyl)-6-(2,4-difluoro-phenoxy)-1H-pyrazolo[3,4-d]pyrimidin-4-ylamino]-1-methyl-ethyl}ester] |  |  |  |  | 214 ng/mL | 188 ng·h/mL | concentration in rat plasma (not detected at quantification limit) ([2]; phosphate prodrug given orally, 3 mg/kg dose): < 0.5 ng/mL
6 | OCC(O)CNc1nc(Oc2ccc(F)cc2F)nc2[nH]nc(-c3ccccc3Cl)c12 (centres unmarked) [3-[3-(2-Chloro-phenyl)-6-(2,4-difluoro-phenoxy)-1H-pyrazolo[3,4-d]pyrimidin-4-ylamino]-propane-1,2-diol] |  |  |  |  |  |  | IC50 (p38 MAP kinase): 4 nM
